*1 amine or outer side, *2 acyl side, *3 side chain or, on linkers, in order; H or OH if unused. Where a SMILES comes first, the peptide text is derived from it. Bridges are numbered along the chain shown (N, C = ends). [ ]: non-standard residue; d: D form. The star is where a group is joined. ξ: configuration not given here. Trp(βS-Me) = C[C@@H](c1c[nH]c2ccccc12)[C@H](N)C(=O)O; Phe(3-CF3) = N[C@@H](Cc1cccc(C(F)(F)F)c1)C(=O)O; Phe(4-COOH) = N[C@@H](Cc1ccc(C(=O)O)cc1)C(=O)O; Bip = N[C@@H](Cc1ccc(-c2ccccc2)cc1)C(=O)O; Phe(3-CN) = N#Cc1cccc(C[C@H](N)C(=O)O)c1; NH(CH2)14COOH = O=C(O)CCCCCCCCCCCCCCN*; Phe(3-Me) = Cc1cccc(C[C@H](N)C(=O)O)c1; γGlu = O=C(O)[C@H](CCC(=O)[*:2])N[*:1]; NH(CH2)12COOH = O=C(O)CCCCCCCCCCCCN*; Val(3-OH) = CC(C)(O)[C@H](N)C(=O)O; 4Pal = N[C@@H](Cc1ccncc1)C(=O)O; Cha = N[C@@H](CC1CCCCC1)C(=O)O; Cit = NC(=O)NCCC[C@H](N)C(=O)O; Thr(3ξ) = CC(O)[C@H](N)C(=O)O; Carboxymethyl = O=C(O)C*; NMeA = CN[C@@H](C)C(=O)O; Orn = NCCC[C@H](N)C(=O)O; Aun = NCCCCCCCCCCC(=O)O; Dab = NCC[C@H](N)C(=O)O; Dap = NC[C@H](N)C(=O)O; AEEA = NCCOCCOCC(=O)O

The target in the first assay is T1, PD-1/PD-L1 interaction (PE-labeled human PD-L1-Ig binding to Jurkat cell line over-expressing human PD-1) (Homo sapiens, UniProt Q15116).
T1 construct: expressed in transfected cells; host or cells: Jurkat
T1 sequence (Q15116 25-288): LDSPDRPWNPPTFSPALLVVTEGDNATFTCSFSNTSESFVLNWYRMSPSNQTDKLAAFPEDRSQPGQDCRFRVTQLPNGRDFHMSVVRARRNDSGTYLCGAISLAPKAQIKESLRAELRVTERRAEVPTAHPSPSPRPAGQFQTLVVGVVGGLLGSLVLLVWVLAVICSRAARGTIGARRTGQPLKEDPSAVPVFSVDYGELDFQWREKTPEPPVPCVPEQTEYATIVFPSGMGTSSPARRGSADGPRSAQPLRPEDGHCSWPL
Nature of the assay: Jurkat-PD-1 Cell Binding High-Content Screening Assay (CBA). The conditions noted are these: Jurkat-hPD-1 cells, PE-labeled PD-L1-Ig 20 nM final; read-out: Jurkat HPD1 PDL1 IC50. The essentials:
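High-content imaging read-out of PE-PD-L1-Ig binding (20 nM final, 1 h) to Jurkat-hPD-1 cells, after 2 h compound exposure at 37 °C in DMEM with 10% FCS. Nuclei counterstained with Hoechst 33342 after paraformaldehyde fixation.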
For the compound `CC(C)C[C@H]1NC(=O)[C@H](C)N(C)C(=O)[C@H](CCC(=O)O)NC(=O)[C@H](Cc2ccc(-c3ccccc3)cc2)NC(=O)[C@H](C(C)C)NC(=O)[C@H](Cc2c[nH]c3ccccc23)NC(=O)[C@H](CC(=O)O)NC(=O)[C@H](Cc2ccc(C(=O)O)cc2)NC(=O)[C@H](Cc2ccc(OCC(=O)O)cc2)NC(=O)CSC[C@@H](C(=O)N[C@@H](CCCCN)C(=O)NCCOCCOCC(=O)NCCCCCCCCCCC(=O)O)NC(=O)[C@H](C(C)O)NC(=O)[C@H](C(C)C)NC(=O)[C@H](CC2CCCCC2)NC(=O)[C@H](CCN)NC1=O` (stereo partly drawn) [Example 2108] ({CH2CO}-Y(Carboxymethyl)[Phe(4-COOH)]DWV[Bip]E[NMeA][dL][Dab][Cha]V[Thr(3ξ)]CK[AEEA][Aun]-OH; thioether N-14), the half-maximal inhibitory concentration (IC50) was 24.4 nM.
Same read-out and setting: the same measure for `CC(C)C[C@@H]1NC(=O)[C@H](Cc2c[nH]c3ccccc23)NC(=O)[C@H](CC(=O)O)NC(=O)[C@H](Cc2ccc(C(=O)O)cc2)NC(=O)[C@H](Cc2ccc(OCC(=O)O)cc2)NC(=O)CSC[C@@H](C(=O)NCC(=O)N[C@@H](CCCN)C(=O)NCCCCCCCCCCC(=O)O)NC(=O)[C@H](CO)NC(=O)[C@H](C(C)C)NC(=O)[C@H](CC2CCCCC2)NC(=O)[C@H](CCN)NC(=O)[C@H](CC(C)C)NC(=O)[C@H](C)N(C)C(=O)[C@H](C(C)C)NC(=O)[C@H](Cc2ccc(-c3ccccc3)cc2)NC1=O` [Example 1038] ({CH2CO}-Y(Carboxymethyl)[Phe(4-COOH)]DWL[Bip]V[NMeA]L[Dab][Cha]VSCG[Orn][Aun]-OH; thioether N-14): 13.2 nM; for `Cc1cccc(C[C@@H]2NC(=O)[C@H](CC(=O)O)NC(=O)[C@H](Cc3ccc(OCC(=O)O)cc3)NC(=O)[C@H](CCCNC(=N)N)NC(=O)CSC[C@@H](C(=O)N[C@@H](CCN)C(=O)NCCCCCCCCCCC(=O)O)NC(=O)[C@@H](CO)NC(=O)[C@H](C(C)C)NC(=O)[C@H](CC3CCCCC3)NC(=O)[C@H](CCN)NC(=O)[C@@H](CC(C)C)NC(=O)[C@H](C)N(C)C(=O)[C@H](Cc3ccc(OCC(=O)O)cc3)NC(=O)[C@H](Cc3ccc(-c4ccccc4)cc3)NC(=O)[C@H](C(C)C)NC2=O)c1` [Example 1266] ({CH2CO}-RY(Carboxymethyl)D[Phe(3-Me)]V[Bip]Y(Carboxymethyl)[NMeA][dL][Dab][Cha]V[dS]C[Dab][Aun]-OH; thioether N-14): 26.6 nM.
Consider `CC(=O)NCCCC[C@@H]1NC(=O)[C@H](C(C)(C)O)NC(=O)[C@H](CC2CCCCC2)NC(=O)[C@H](CCN)NC(=O)[C@@H](CC(C)C)NC(=O)[C@H](C)N(C)C(=O)[C@H](CCC(N)=O)NC(=O)[C@H](Cc2ccc(-c3ccccc3)cc2)NC(=O)[C@H](Cc2ccc(C(=O)O)cc2)NC(=O)[C@H](Cc2cccc(C(F)(F)F)c2)NC(=O)[C@H](CC(=O)O)NC(=O)[C@H](Cc2ccc(OCC(=O)O)cc2)NC(=O)[C@H](Cc2ccc(C(=O)O)cc2)NC(=O)CSC[C@@H](C(=O)N[C@@H](CCN)C(=O)NCCOCCOCC(=O)N[C@@H](CCC(=O)NCCOCCOCC(=O)NCCCCCCCCCCCCC(=O)O)C(=O)O)NC1=O` [Example 1185] ({CH2CO}-[Phe(4-COOH)]Y(Carboxymethyl)D[Phe(3-CF3)][Phe(4-COOH)][Bip]Q[NMeA][dL][Dab][Cha][Val(3-OH)]K(Ac)C[Dab][AEEA][γGlu][AEEA]-{NH(CH2)12COOH}; thioether N-14), for which the IC50 came out at 50.2 nM.
Still for that read-out and setting: the same measure for `CC(C)C[C@@H]1NC(=O)[C@H](Cc2c[nH]c3ccccc23)NC(=O)[C@H](CC(=O)O)NC(=O)[C@H](Cc2ccc(C(=O)O)cc2)NC(=O)[C@H](Cc2ccc(OCC(=O)O)cc2)NC(=O)CSC[C@@H](C(=O)N[C@@H](CN)C(=O)NCCOCCOCC(=O)NCCCCCCCCCCC(=O)O)NC(=O)[C@H](CCCNC(N)=O)NC(=O)[C@H](C(C)C)NC(=O)[C@H](CC2CCCCC2)NC(=O)[C@H](CCN)NC(=O)[C@@H](CC(C)C)NC(=O)[C@H](C)N(C)C(=O)[C@H](C(C)C)NC(=O)[C@H](Cc2ccc(-c3ccccc3)cc2)NC1=O` [Example 2132] ({CH2CO}-Y(Carboxymethyl)[Phe(4-COOH)]DWL[Bip]V[NMeA][dL][Dab][Cha]V[Cit]C[Dap][AEEA][Aun]-OH; thioether N-14): 8.2 nM; for `CC(C)C[C@@H]1NC(=O)[C@H](Cc2c[nH]c3ccccc23)NC(=O)[C@H](CC(=O)O)NC(=O)[C@H](Cc2ccncc2)NC(=O)[C@H](Cc2ccc(OCC(=O)O)cc2)NC(=O)CSC[C@@H](C(=O)N[C@@H](CCCCN)C(=O)NCCCCCCCCCCC(=O)O)NC(=O)[C@H](CO)NC(=O)[C@H](C(C)C)NC(=O)[C@H](CC2CCCCC2)NC(=O)[C@H](CCN)NC(=O)[C@@H](CC(C)C)NC(=O)[C@H](C)N(C)C(=O)[C@H](C(C)C)NC(=O)[C@H](Cc2ccc(-c3ccccc3)cc2)NC1=O` [Example 1085] ({CH2CO}-Y(Carboxymethyl)[4Pal]DWL[Bip]V[NMeA][dL][Dab][Cha]VSCK[Aun]-OH; thioether N-14): 15.4 nM.
The same measure, in the same setting: the value for `CC(C)C[C@H]1NC(=O)[C@H](C)N(C)C(=O)[C@H](Cc2ccc(OCC(=O)O)cc2)NC(=O)[C@H](Cc2ccc(-c3ccccc3)cc2)NC(=O)[C@H](Cc2ccc(OCC(=O)O)cc2)NC(=O)[C@H]([C@@H](C)c2c[nH]c3ccccc23)NC(=O)[C@H](CC(=O)O)NC(=O)[C@H](Cc2ccc(OCC(=O)O)cc2)NC(=O)[C@H](CCCNC(=N)N)NC(=O)CSC[C@@H](C(=O)N[C@@H](CCN)C(=O)NCCCCCCCCCCC(=O)O)NC(=O)[C@H]([C@@H](C)O)NC(=O)[C@H](C(C)C)NC(=O)[C@H](CC2CCCCC2)NC(=O)[C@H](CCN)NC1=O` [Example 1273] ({CH2CO}-RY(Carboxymethyl)D[Trp(βS-Me)]Y(Carboxymethyl)[Bip]Y(Carboxymethyl)[NMeA][dL][Dab][Cha]VTC[Dab][Aun]-OH; thioether N-14) was 327 nM.
On to `Cc1cccc(C[C@@H]2NC(=O)[C@H](CC(=O)O)NC(=O)[C@H](Cc3ccc(OCC(=O)O)cc3)NC(=O)[C@H](CCN)NC(=O)CSC[C@@H](C(=O)N[C@@H](CCN)C(=O)NCCCCCCCCCCC(=O)O)NC(=O)[C@H](CO)NC(=O)[C@H](C(C)(C)O)NC(=O)[C@H](CC3CCCCC3)NC(=O)[C@H](CCN)NC(=O)[C@@H](CC(C)C)NC(=O)[C@H](C)N(C)C(=O)[C@H](Cc3ccc(OCC(=O)O)cc3)NC(=O)[C@H](Cc3ccc(-c4ccccc4)cc3)NC(=O)[C@H](Cc3cccc(C#N)c3)NC2=O)c1` [Example 1306] ({CH2CO}-[Dab]Y(Carboxymethyl)D[Phe(3-Me)][Phe(3-CN)][Bip]Y(Carboxymethyl)[NMeA][dL][Dab][Cha][Val(3-OH)]SC[Dab][Aun]-OH; thioether N-14), for which the IC50 was found to be 23.9 nM.

Still in this assay, the particulars now being: PE-labeled PD-L1-Ig 20 nM final, Jurkat-hPD-1 cells; read-out: Jurkat HPD1 PDL1 IC50.
As for `Cc1cccc(C[C@@H]2NC(=O)[C@H](CC(=O)O)NC(=O)[C@H](Cc3ccc(OCC(=O)O)cc3)NC(=O)[C@H](CCN)NC(=O)CSC[C@@H](C(=O)N[C@@H](CCN)C(=O)NCCOCCOCC(=O)NCCOCCOCC(=O)NCCCCCCCCCCC(=O)O)NC(=O)[C@H](CCC(=O)O)NC(=O)[C@H](C(C)(C)O)NC(=O)[C@H](CC3CCCCC3)NC(=O)[C@H](CCN)NC(=O)[C@@H](CC(C)C)NC(=O)[C@H](C)N(C)C(=O)[C@H](Cc3ccc(C(=O)O)cc3)NC(=O)[C@H](Cc3ccc(-c4ccccc4)cc3)NC(=O)[C@H](Cc3ccc(C(=O)O)cc3)NC2=O)c1` [Example 2518] ({CH2CO}-[Dab]Y(Carboxymethyl)D[Phe(3-Me)][Phe(4-COOH)][Bip][Phe(4-COOH)][NMeA][dL][Dab][Cha][Val(3-OH)]EC[Dab][AEEA][AEEA][Aun]-OH; thioether N-14), the IC50 came to 14.3 nM.
On to `CC(C)C[C@H]1NC(=O)[C@H](C)N(C)C(=O)[C@H](CCC(N)=O)NC(=O)[C@H](Cc2ccc(-c3ccccc3)cc2)NC(=O)[C@H](Cc2ccc(OCC(=O)O)cc2)NC(=O)[C@H](Cc2cccc(C(F)(F)F)c2)NC(=O)[C@H](CC(=O)O)NC(=O)[C@H](Cc2ccc(OCC(=O)O)cc2)NC(=O)[C@H](C)NC(=O)CSC[C@@H](C(=O)N[C@@H](CCN)C(=O)NCCOCCOCC(=O)NCCOCCOCC(=O)N[C@H](CCC(=O)NCCCCCCCCCCCCCCC(=O)O)C(=O)O)NC(=O)[C@H](Cc2cnc[nH]2)NC(=O)[C@H](C(C)(C)O)NC(=O)[C@H](CC2CCCCC2)NC(=O)[C@H](CCN)NC1=O` [Example 2628] ({CH2CO}-AY(Carboxymethyl)D[Phe(3-CF3)]Y(Carboxymethyl)[Bip]Q[NMeA][dL][Dab][Cha][Val(3-OH)]HC[Dab][AEEA][AEEA][dE](NH(CH2)14COOH)-OH; thioether N-14), for which the IC50 amounted to 247 nM.
Same read-out and setting: the same measure for `CC(C)C[C@@H]1NC(=O)[C@H](Cc2c[nH]c3ccccc23)NC(=O)[C@H](CC(=O)O)NC(=O)[C@H](Cc2ccc(OCC(=O)O)cc2)NC(=O)[C@H](Cc2ccc(OCC(=O)O)cc2)NC(=O)CSC[C@@H](C(=O)NCCOCCOCC(=O)NCCCCCCCCCCC(=O)O)NC(=O)[C@H](Cc2cnc[nH]2)NC(=O)[C@H](CO)NC(=O)[C@H](CC2CCCCC2)NC(=O)[C@H](CCN)NC(=O)[C@@H](CC(C)C)NC(=O)[C@H](C)N(C)C(=O)[C@H](C(C)C)NC(=O)[C@H](Cc2ccc(-c3ccccc3)cc2)NC1=O` [Example 2436] ({CH2CO}-Y(Carboxymethyl)Y(Carboxymethyl)DWL[Bip]V[NMeA][dL][Dab][Cha]SHC[AEEA][Aun]-OH; thioether N-14): 31.4 nM; for `CC(=O)NCCCC[C@@H]1NC(=O)[C@H](C(C)(C)O)NC(=O)[C@H](CC2CCCCC2)NC(=O)[C@H](CCN)NC(=O)[C@@H](CC(C)C)NC(=O)[C@H](C)N(C)C(=O)[C@H](CCCNC(N)=O)NC(=O)[C@H](Cc2ccc(-c3ccccc3)cc2)NC(=O)[C@H](Cc2ccc(C(=O)O)cc2)NC(=O)[C@H](Cc2cccc(C(F)(F)F)c2)NC(=O)[C@H](CC(=O)O)NC(=O)[C@H](Cc2ccc(OCC(=O)O)cc2)NC(=O)[C@H](Cc2ccc(OCC(=O)O)cc2)NC(=O)CSC[C@@H](C(=O)N[C@@H](CCN)C(=O)NCCCCCCCCCCC(=O)O)NC1=O` [Example 2570] ({CH2CO}-Y(Carboxymethyl)Y(Carboxymethyl)D[Phe(3-CF3)][Phe(4-COOH)][Bip][Cit][NMeA][dL][Dab][Cha][Val(3-OH)]K(Ac)C[Dab][Aun]-OH; thioether N-14): 2.7 nM.

Values taken from patent US20260070945A1, “MACROCYCLIC IMMUNOMODULATORS” (Bristol-Myers Squibb Company, priority 2022, published 2026).
